Measurements published in patent US20260159536A1, “AKR1C3-ACTIVATED DNA ALKYLATING AGENT, AND MEDICAL APPLICATION THEREOF” (ASCENTAWITS PHARMACEUTICALS, LTD., priority 2021, published 2026).
Like-named read-outs stand apart in the source and are kept apart here.

Tests used:
[1] = tested on: human liver cancer LI6652; assay: In vivo pharmacodynamics, liver cancer LI6652 subcutaneous xenograft PDX model; parameters: species or system BALB/c nude mice; conditions: for Relative tumor volume (x ± S) / T/C (%) / TGI (%) / Tumor volume (x ± S): 2 weeks off, 2 cycles
Procedure: The pharmacodynamic analysis of each group in liver cancer LI6652 model was performed on Day 31 after administration, and the results were shown in Table 12.

[2] = Blood-brain barrier assay of Compound A (plasma and brain concentration, PK); assay type: in vivo, CD-1 mice
Procedure: Three CD-1 mice were administered 1 mg/kg of the test Compound A intravenously at each time point. Blood and brain tissue were taken at 5 min, 15 min, 1 h, 2 h, 4 h and 8 h after administration.
The PK (Pharmacokinetic) parameters obtained from the above assays were listed as follows, as shown in Table 33 and Table 34. • PK parameters, pharmacokinetic parameters. • T1/2, half-life. • Cl-obs, plasma clearance. • C0, starting concentration. • AUClast, area under the concentration-time curve from start of administration time to the last point. • AUCInf, area under the concentration-time curve from start of administration to the time at infinity. • Tmax, time to maximum observed plasma concentration. • Cmax, concentration to maximum observed plasma concentration. • MRTlnf-obs, represents the mean residence time from the start of administration to the time of theoretical extrapolation to infinity. • AUClnf Ration (Brain/Plasma), the ratio of the area under the concentration-time curve of serum and brain tissue from the start of administration to the time at infinity. • Unit, unit. • Mean, average value.

[3] = 1.25 mg/kg i.p. QDx5, 2 days off, Day 28
[4] = 2.5 mg/kg i.p. QDx5, 2 days off, Day 28
[5] = 5 mg/kg i.p. QDx5, 2 days off, Day 28
[6] = CD-1, mouse, iv, brain tissues, 1 mg/kg intravenously, Mean

For `O=[N+]([O-])c1ccc(C(OP(=O)(N2CC2)N2CC2)C(F)(F)F)cc1Oc1ccc(-c2ccc(F)cc2)c(F)c1` (racemic) [Compound A], the “Relative tumor volume (x ± S)” value [1, 3] was 0.18 ± 0.07, the “T/C (%)” value [1, 3] was 1.23% and the “TGI (%)” value [1, 3] was 98.77%. The “Tumor volume (x ± S)” value [1, 3] was 24.72 ± 9.57, the Tumor volume ([1]; 1.25 mg/kg i.p., Day 0) was 126.30 mm^3 and the Tumor volume ([1]; 1.25 mg/kg i.p., Day 3) was 184.11 mm^3. For the same compound, the Tumor volume ([1]; 1.25 mg/kg i.p., Day 7) was 194.19 mm^3, the Tumor volume ([1]; 1.25 mg/kg i.p., Day 10) was 135.63 mm^3 and the Tumor volume ([1]; 1.25 mg/kg i.p., Day 14) was 51.98 mm^3. It also gave a Tumor volume ([1]; 1.25 mg/kg i.p., Day 17) of 28.94 mm^3, a Tumor volume ([1]; 1.25 mg/kg i.p., Day 21) of 29.42 mm^3 and a Tumor volume ([1]; 1.25 mg/kg i.p., Day 24) of 28.38 mm^3. For the same compound, the Tumor volume ([1]; 1.25 mg/kg i.p., Day 28) was 24.72 mm^3, the Tumor volume ([1]; 1.25 mg/kg i.p., Day 31) was 18.12 mm^3 and the “Relative tumor volume (x ± S)” value [1, 4] was 0.17 ± 0.10. For the same compound, the “T/C (%)” value [1, 4] was 1.16%, the “TGI (%)” value [1, 4] was 98.84% and the “Tumor volume (x ± S)” value [1, 4] was 18.28 ± 8.14. For the same compound, the Tumor volume ([1]; 2.5 mg/kg i.p., Day 0) was 126.29 mm^3, the Tumor volume ([1]; 2.5 mg/kg i.p., Day 3) was 179.46 mm^3 and the Tumor volume ([1]; 2.5 mg/kg i.p., Day 7) was 189.33 mm^3. For the same compound, the Tumor volume ([1]; 2.5 mg/kg i.p., Day 10) was 145.19 mm^3, the Tumor volume ([1]; 2.5 mg/kg i.p., Day 14) was 43.64 mm^3 and the Tumor volume ([1]; 2.5 mg/kg i.p., Day 17) was 29.90 mm^3. It also gave a Tumor volume ([1]; 2.5 mg/kg i.p., Day 21) of 21.49 mm^3, a Tumor volume ([1]; 2.5 mg/kg i.p., Day 24) of 17.91 mm^3 and a Tumor volume ([1]; 2.5 mg/kg i.p., Day 28) of 18.28 mm^3. For the same compound, the Tumor volume ([1]; 2.5 mg/kg i.p., Day 31) was 5.56 mm^3, the “Relative tumor volume (x ± S)” value [1, 5] was 0.02 ± 0.02 and the “T/C (%)” value [1, 5] was 0.14%. For the same compound, the “Tumor volume (x ± S)” value [1, 5] was 3.38 ± 3.38, the Tumor volume ([1]; 5 mg/kg i.p., Day 0) was 124.83 mm^3 and the Tumor volume ([1]; 5 mg/kg i.p., Day 3) was 174.91 mm^3. It also gave a Tumor volume ([1]; 5 mg/kg i.p., Day 7) of 190.90 mm^3, a Tumor volume ([1]; 5 mg/kg i.p., Day 10) of 130.55 mm^3 and a Tumor volume ([1]; 5 mg/kg i.p., Day 14) of 34.29 mm^3. For the same compound, the Tumor volume ([1]; 5 mg/kg i.p., Day 17) was 19.84 mm^3, the Tumor volume ([1]; 5 mg/kg i.p., Day 21) was 13.80 mm^3 and the Tumor volume ([1]; 5 mg/kg i.p., Day 24) was 12.20 mm^3. The Tumor volume ([1]; 5 mg/kg i.p., Day 28) was 3.38 mm^3, the Tumor volume ([1]; 5 mg/kg i.p., Day 31) was 2.62 mm^3 and the “relative tumor inhibition TGI (%)” value ([1]; 1.25, 2.5, 5 mg/kg i.p.) was “exceeding 98%”. For the same compound, the “effect on body weight” value ([1]; 1.25, 2.5, 5 mg/kg, at least 28 days) was “no significant effect on the body weight”, the blood-brain barrier penetration ([2]; 1 mg/kg intravenously, within 8 hours) was “can effectively penetrate the blood-brain barrier” and the concentration at 0.083 h ([2]; CD-1, mouse, brain, iv, 1 mg/kg, IV 1 mg/kg, 0.083 h, individual animals, read-out: Brain concentration) was 538 ng/g. It also gave a concentration at 0.25 h ([2]; CD-1, mouse, brain, iv, 1 mg/kg, IV 1 mg/kg, 0.25 h, individual animals, read-out: Brain concentration) of 419 ng/g, a concentration at 1 h ([2]; CD-1, mouse, brain, iv, 1 mg/kg, IV 1 mg/kg, 1 h, individual animals, read-out: Brain concentration) of 180 ng/g and a concentration at 2 h ([2]; CD-1, mouse, brain, iv, 1 mg/kg, IV 1 mg/kg, 2 h, individual animals, read-out: Brain concentration) of 107 ng/g. It also gave a concentration at 4 h ([2]; CD-1, mouse, brain, iv, 1 mg/kg, IV 1 mg/kg, 4 h, individual animals, read-out: Brain concentration) of 71.2 ng/g, a concentration at 8 h ([2]; CD-1, mouse, brain, iv, 1 mg/kg, IV 1 mg/kg, 8 h, individual animals, read-out: Brain concentration) of 23.6 ng/g and a Kp ([2]; CD-1, mouse, brain/plasma, iv, 1 mg/kg, 1 mg/kg intravenously, Mean, read-out: AUCInf Ratio (Brain/Plasma)) of 0.8. The Kp at 0.083 h ([2]; CD-1, mouse, brain/plasma, iv, 1 mg/kg, IV 1 mg/kg, 0.083 h, individual animals, read-out: Ratio (Brain/Plasma)) was 1.17, the Kp at 0.083 h ([2]; CD-1, mouse, brain/plasma, iv, 1 mg/kg, IV 1 mg/kg, 0.083 h, mean of 3 animals, read-out: Ratio (Brain/Plasma), Mean) was 1.28 and the Kp at 0.25 h ([2]; CD-1, mouse, brain/plasma, iv, 1 mg/kg, IV 1 mg/kg, 0.25 h, individual animals, read-out: Ratio (Brain/Plasma)) was 1.13. The Kp at 0.25 h ([2]; CD-1, mouse, brain/plasma, iv, 1 mg/kg, IV 1 mg/kg, 0.25 h, mean of 3 animals, read-out: Ratio (Brain/Plasma), Mean) was 1.15, the Kp at 1 h ([2]; CD-1, mouse, brain/plasma, iv, 1 mg/kg, IV 1 mg/kg, 1 h, individual animals, read-out: Ratio (Brain/Plasma)) was 0.8 and the Kp at 1 h ([2]; CD-1, mouse, brain/plasma, iv, 1 mg/kg, IV 1 mg/kg, 1 h, mean of 3 animals, read-out: Ratio (Brain/Plasma), Mean) was 0.76. The Kp at 2 h ([2]; CD-1, mouse, brain/plasma, iv, 1 mg/kg, IV 1 mg/kg, 2 h, individual animals, read-out: Ratio (Brain/Plasma)) was 0.71, the Kp at 2 h ([2]; CD-1, mouse, brain/plasma, iv, 1 mg/kg, IV 1 mg/kg, 2 h, mean of 3 animals, read-out: Ratio (Brain/Plasma), Mean) was 0.67 and the Kp at 4 h ([2]; CD-1, mouse, brain/plasma, iv, 1 mg/kg, IV 1 mg/kg, 4 h, individual animals, read-out: Ratio (Brain/Plasma)) was 0.74. It also gave a Kp at 4 h ([2]; CD-1, mouse, brain/plasma, iv, 1 mg/kg, IV 1 mg/kg, 4 h, mean of 3 animals, read-out: Ratio (Brain/Plasma), Mean) of 0.78, a Kp at 8 h ([2]; CD-1, mouse, brain/plasma, iv, 1 mg/kg, IV 1 mg/kg, 8 h, individual animals, read-out: Ratio (Brain/Plasma)) of 0.48 and a Kp at 8 h ([2]; CD-1, mouse, brain/plasma, iv, 1 mg/kg, IV 1 mg/kg, 8 h, mean of 3 animals, read-out: Ratio (Brain/Plasma), Mean) of 0.52. It also gave a Cmax [2, 6] of 543 ng/g, a Tmax [2, 6] of 4.8 min and an MRT inf ([2]; CD-1, mouse, iv, brain tissues, 1 mg/kg intravenously, Mean, read-out: MRTInf_obs) of 2.99 h. For the same compound, the half-life ([2]; CD-1, mouse, iv, brain tissues, 1 mg/kg intravenously, Mean, read-out: T½ (converted)) was 2.8 h.
